As a reminder, the GI50 is the concentration that inhibits growth by half.

Activity calls are given as the source filed them. No cut-off for these calls is given here.

Assay [1] has as its system MCF7. The experiment in a line: Growth inhibition of estrogen receptor positive Homo sapiens (human) MCF7 cells after 48 hr by [3H]-thymidine incorporation assay. The format is functional. In general terms: Uptake of a labelled nucleoside into DNA is a usual measure of proliferation.
The test system of assay [2] is MDA-MB-231. The experiment in a line: Growth inhibition of estrogen receptor negative Homo sapiens (human) MDA-MB-231 cells after 48 hr by [3H]-thymidine incorporation assay. The format is functional.
Assay [3] deals with NCI-H460. In words: Growth inhibition of Homo sapiens (human) NCI-H460 cells after 48 hr by [3H]-thymidine incorporation assay. The format is functional.
Assay [4] deals with MDA-MB-231. The experiment in a line: Antiproliferative activity against estrogen receptor negative Homo sapiens (human) MDA-MB-231 cells after 48 hr by SRB assay. It is filed as functional, cell-based. (In SRB staining, fixed cells bind dye roughly in proportion to their protein.)
Assay [5] has as its system MCF7. In words: Antiproliferative activity against estrogen receptor positive Homo sapiens (human) MCF7 cells in steroid free medium after 48 hr by SRB assay. It is filed as functional, cell-based.
The subject of assay [6] is MCF7. In words: Antiproliferative activity against estrogen receptor positive Homo sapiens (human) MCF7 cells at 0.05 uM after 48 hr by SRB assay. The format is functional, cell-based.
Assay [7] concerns MCF7. In words: Antiproliferative activity against estrogen receptor positive Homo sapiens (human) MCF7 cells in complete medium after 48 hr by SRB assay. The format is functional, cell-based.
Assay [8] has as its system MDA-MB-231. The experiment in a line: Antiproliferative activity against estrogen receptor negative Homo sapiens (human) MDA-MB-231 cells at 0.05 uM after 48 hr by SRB assay. It is filed as functional, cell-based.
Assay [9] relates to MCF7. In words: Antiproliferative activity against estrogen receptor positive Homo sapiens (human) MCF7 cells after 48 hr by SRB assay. It is filed as functional, cell-based.
Assay [10] relates to MCF7. The experiment in a line: Antiproliferative activity against estrogen receptor positive Homo sapiens (human) MCF7 cells in steroid free medium after 48 hr by SRB assay in presence of ER antagonist 4-OHT. The format is functional, cell-based.

As to `CC(C)=CCOc1ccc2c(=O)c3ccccc3oc2c1OCC=C(C)C`, the concentration for 50% growth inhibition (GI50) in assay [1] turned out to be 21.8 µM; in assay [2], 39 µM; in [3] it was 30.7 µM.

`CC(C)=CCOc1ccc2c(=O)c3ccccc3oc2c1O`: the concentration for 50% growth inhibition (GI50) came to 14.2 µM in assay [1], 29.1 µM in assay [2] and 20.4 µM in [3]. The Activity entry in assay [4], in assay [5], in assay [7] and in assay [9] was “Dose-dependent effect” in each case. The outcome in assay [6] and in assay [8] was Active.

On to `CC1(C)CCc2cc3c(=O)c4ccccc4oc3c(O)c2O1` [DIHYDRO-12-HYDROXY-2,2-DIMETHYL-2H,6H-PYRANO[3,2-B]XANTHEN-6-ONE], for which the concentration for 50% growth inhibition (GI50) in assay [1] came to 5.3 µM; in assay [2], 29 µM; in assay [3], 22 µM. Besides, the Activity entry in [4], in assay [5], in assay [7] and in [9] was “Dose-dependent effect” throughout. Besides, the result in [6], in [8] and in assay [10] was Active.

For the origin of these results see ChEMBL document CHEMBL3046019, “Prenylated xanthones: antiproliferative effects and enhancement of the growth inhibitory action of 4-hydroxytamoxifen in estrogen receptor-positive breast cancer cell line” (2012).
